Measurements as given in patent US9024017B2, “Octahydro-cyclopentapyrrolyl antagonists of CCR2” (Janssen Pharmaceutica NV, priority 2012, dated 2015).

Biological target: T1, CCR2 (Homo sapiens, UniProt P41597)
T1 construct: host or cells: THP-1 (human monocytic cell line)
Assay: MCP-1 Receptor Binding Assay in THP-1 Cells
Conditions: read-out: MCP1B_v3 IC50
How it was run: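 Human monocytic THP-1 cells incubated 2 h at 30 °C with 0.5 nM 125I-MCP-1 and varying concentrations of test compound or unlabelled MCP-1. Cells filter-harvested and counted by scintillation; blank subtracted, compared with vehicle; nonspecific binding with 1 μM cold MCP-1.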

T1 sequence (P41597 whole entry): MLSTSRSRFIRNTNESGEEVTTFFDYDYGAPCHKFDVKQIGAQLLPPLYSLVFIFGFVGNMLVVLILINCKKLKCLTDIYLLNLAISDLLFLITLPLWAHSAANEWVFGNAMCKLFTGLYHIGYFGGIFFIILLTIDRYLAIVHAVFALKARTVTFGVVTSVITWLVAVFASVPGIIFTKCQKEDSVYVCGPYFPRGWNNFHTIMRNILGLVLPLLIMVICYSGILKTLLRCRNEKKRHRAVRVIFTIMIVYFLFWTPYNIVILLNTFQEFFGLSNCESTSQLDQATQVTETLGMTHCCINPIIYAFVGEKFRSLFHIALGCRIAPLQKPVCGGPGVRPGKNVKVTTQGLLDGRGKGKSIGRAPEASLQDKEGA

| SMILES | IC50 [nM] |
| --- | --- |
| COC1COCCC1N[C@@H]1C[C@H]2CN(C3CC3)C[C@@]2(C(=O)N2CCc3ncc(C(F)(F)F)cc3C2)C1 (relative stereo) [Example 94, ((3aR,5R,6aR)-2-Cyclopropyl-5-(((3S*,4S*)-3-methoxytetrahydro-2H-pyran-4-yl)amino)octahydrocyclopenta[c]pyrrol-3a-yl)(3-(trifluoromethyl)-7,8-dihydro-1,6-naphthyridin-6(5H)-yl)methanone] | 180 |
| COC1COCCC1N[C@@H]1C[C@H]2CN(C3CC3)C[C@@]2(C(=O)N2CCc3ccc(C(F)(F)F)cc3C2)C1 (relative stereo) [Example 95, ((3aR,5R,6aR)-2-Cyclopropyl-5-(((3S*,4S*)-3-methoxytetrahydro-2H-pyran-4-yl)amino)octahydrocyclopenta[c]pyrrol-3a-yl)(7-(trifluoromethyl)-3,4-dihydroisoquinolin-2(1H)-yl)methanone] | 30 |
| COC1COCCC1N[C@@H]1C[C@H]2CN(C(C)C)C[C@@]2(C(=O)N2CCc3ncc(C(F)(F)F)cc3C2)C1 (relative stereo) [Example 96, ((3aR,5R,6aR)-2-Isopropyl-5-(((3S*,4S*)-3-methoxytetrahydro-2H-pyran-4-yl)amino)octahydrocyclopenta[c]pyrrol-3a-yl)(3-(trifluoromethyl)-7,8-dihydro-1,6-naphthyridin-6(5H)-yl)methanone] | 1220 |
| CCN1C[C@@H]2C[C@@H](NC3CCOCC3OC)C[C@]2(C(=O)N2CCc3ncc(C(F)(F)F)cc3C2)C1 (relative stereo) [Example 98, ((3aR,5R,6aR)-2-Ethyl-5-(((3S*,4S*)-3-methoxytetrahydro-2H-pyran-4-yl)amino)octahydrocyclopenta[c]pyrrol-3a-yl)(3-(trifluoromethyl)-7,8-dihydro-1,6-naphthyridin-6(5H)-yl)methanone] | 630 |
| COC1COCCC1N[C@@H]1C[C@H]2CN(C3COC3)C[C@@]2(C(=O)N2CCc3ncc(C(F)(F)F)cc3C2)C1 (relative stereo) [Example 99, ((3aR,5R,6aR)-5-(((3S*,4S*)-3-methoxytetrahydro-2H-pyran-4-yl)amino)-2-(oxetan-3-yl)octahydrocyclopenta[c]pyrrol-3a-yl)(3-(trifluoromethyl)-7,8-dihydro-1,6-naphthyridin-6(5H)-yl)methanone] | 130 |
| COC1COCCC1N[C@@H]1C[C@H]2CN(C3COC3)C[C@@]2(C(=O)N2CCc3ccc(C(F)(F)F)cc3C2)C1 (relative stereo) [Example 100, ((3aR,5R,6aR)-5-(((3S*,4S*)-3-Methoxytetrahydro-2H-pyran-4-yl)amino)-2-(oxetan-3-yl)octahydrocyclopenta[c]pyrrol-3a-yl)(7-(trifluoromethyl)-3,4-dihydroisoquinolin-2(1H)-yl)methanone] | 30 |
| COC1COCCC1N[C@@H]1C[C@H]2CN(C3CCOCC3OC)C[C@@]2(C(=O)N2CCc3ncc(C(F)(F)F)cc3C2)C1 (relative stereo) [Example 104, ((3aR,5R,6aR)-2-((3S*,4S*)-3-Methoxytetrahydro-2H-pyran-4-yl)-5-(((3S*,4S*)-3-methoxytetrahydro-2H-pyran-4-yl)amino)octahydrocyclopenta[c]pyrrol-3a-yl)(3-(trifluoromethyl)-7,8-dihydro-1,6-naphthyridin-6(5H)-yl)methanone] | 1980 |
| COC1COCCC1N[C@@H]1C[C@H]2CN(C3CCOCC3OC)C[C@@]2(C(=O)N2CCc3ccc(C(F)(F)F)cc3C2)C1 (relative stereo) [Example 105, ((3aR,5R,6aR)-2-((3S*,4S*)-3-Methoxytetrahydro-2H-pyran-4-yl)-5-(((3S*,4S*)-3-methoxytetrahydro-2H-pyran-4-yl)amino)octahydrocyclopenta[c]pyrrol-3a-yl)(7-(trifluoromethyl)-3,4-dihydroisoquinolin-2(1H)-yl)methanone] | 120 |
| COC1COCCC1N[C@@H]1C[C@H]2CN(CC(=O)N(C)C)C[C@@]2(C(=O)N2CCc3ncc(C(F)(F)F)cc3C2)C1 (relative stereo) [Example 106, 2-((3aR,5R,6aR)-5-(((3S*,4S*)-3-Methoxytetrahydro-2H-pyran-4-yl)amino)-3a-(3-(trifluoromethyl)-5,6,7,8-tetrahydro-1,6-naphthyridine-6-carbonyl)hexahydrocyclopenta[c]pyrrol-2(1H)-yl)-N,N-dimethylacetamide] | 2800 |
| COC(=O)CN1C[C@@H]2C[C@@H](NC3CCOCC3OC)C[C@]2(C(=O)N2CCc3ncc(C(F)(F)F)cc3C2)C1 (relative stereo) [Example 107, Methyl 2-((3aR,5R,6aR)-5-(((3S*,4S*)-3-methoxytetrahydro-2H-pyran-4-yl)amino)-3a-(3-(trifluoromethyl)-5,6,7,8-tetrahydro-1,6-naphthyridine-6-carbonyl)hexahydrocyclopenta[c]pyrrol-2(1H)-yl)acetate] | 1100 |

More lines, now with the values ahead:

| IC50 [nM] | SMILES |
| --- | --- |
| 1100 | COC1COCCC1N[C@@H]1C[C@H]2CN(S(=O)(=O)Cc3ccccc3)C[C@@]2(C(=O)N2CCc3ncc(C(F)(F)F)cc3C2)C1 (relative stereo) [Example 92, ((3aR,5R,6aR)-2-(Benzylsulfonyl)-5-(((3S*,4S*)-3-methoxytetrahydro-2H-pyran-4-yl)amino)octahydrocyclopenta[c]pyrrol-3a-yl)(3-(trifluoromethyl)-7,8-dihydro-1,6-naphthyridin-6(5H)-yl)methanone] |
| 980 | COC1COCCC1N[C@@H]1C[C@H]2CN(S(=O)(=O)CCc3ccccc3)C[C@@]2(C(=O)N2CCc3ncc(C(F)(F)F)cc3C2)C1 (relative stereo) [Example 93, ((3aR,5R,6aR)-5-(((3S*,4S*)-3-Methoxytetrahydro-2H-pyran-4-yl)amino)-2-(phenethylsulfonyl)octahydrocyclopenta[c]pyrrol-3a-yl)(3-(trifluoromethyl)-7,8-dihydro-1,6-naphthyridin-6(5H)-yl)methanone] |
| 370 | COC1COCCC1N[C@@H]1C[C@H]2CN(Cc3ccccc3)C[C@@]2(C(=O)N2CCc3ncc(C(F)(F)F)cc3C2)C1 (relative stereo) [Example 101, ((3aR,5R,6aR)-2-Benzyl-5-(((3S*,4S*)-3-methoxytetrahydro-2H-pyran-4-yl)amino)octahydrocyclopenta[c]pyrrol-3a-yl)(3-(trifluoromethyl)-7,8-dihydro-1,6-naphthyridin-6(5H)-yl)methanone] |
| 1000 | COC1COCCC1N[C@@H]1C[C@H]2CN(CCc3ccccc3)C[C@@]2(C(=O)N2CCc3ncc(C(F)(F)F)cc3C2)C1 (relative stereo) [Example 102, ((3aR,5R,6aR)-5-(((3S*,4S*)-3-Methoxytetrahydro-2H-pyran-4-yl)amino)-2-phenethyloctahydrocyclopenta[c]pyrrol-3a-yl)(3-(trifluoromethyl)-7,8-dihydro-1,6-naphthyridin-6(5H)-yl)methanone] |
| 1000 | COC1COCCC1N[C@@H]1C[C@H]2CN(CCCc3ccccc3)C[C@@]2(C(=O)N2CCc3ncc(C(F)(F)F)cc3C2)C1 (relative stereo) [Example 103, ((3aR,5R,6aR)-5-(((3S*,4S*)-3-Methoxytetrahydro-2H-pyran-4-yl)amino)-2-(3-phenylpropyl)octahydrocyclopenta[c]pyrrol-3a-yl)(3-(trifluoromethyl)-7,8-dihydro-1,6-naphthyridin-6(5H)-yl)methanone] |
